# Where two headings read alike, the source gives them in different places.
# What was measured:
# [1] = system: bortezomib-resistant DHL-4 lymphoma cells; experiment: viability of bortezomib-resistant DHL-4 lymphoma cells; assay type: cell-based; conditions: 48 hours; 0, 12, 25 and 50 uM
# Experimental: (§1) Two cell-based assays were treated with NPI-1387 for 48 hours at concentrations of 0, 12, 25 and 50 uM. Both Bcl-2-overexpressing MM.1S cells and bortezomib-resistant DHL-4 lymphoma cells were used and the percentage of viable cells of each was recorded. […] (See FIG. 67).
# MM cells = experiment: apoptosis of MM cells (DAPI, PARP cleavage, caspases); assay type: cell-based
# Experimental: Transcription factor NF-KB is linked to growth and survival of multiple myeloma (MM) cells and blockade of NF-KB activity. NPI-1387 (Formula IIB-b1; compound 24 shown above under scheme 4), a potent small-molecule inhibitor of upstream activator of NF-KB, was administered to MM cells and its effect on the viability of MM cells, including those resistant to conventional agents dexamethasone or doxorubicin is shown.
# (§2) Besides nuclear condensation, NF-KB inhibitor triggered proteolytic cleavage of poly (ADP ribose) polymerase (PARP), a hallmark of apoptosis.
# Both caspase-8 and caspase-9 activate downstream caspase-3. […] Collectively, these findings show the efficacy of NF-KB inhibitor to enhance MM cell killing, overcome drug-resistance, and improve patient outcome in MM.
# [2] = system: bone marrow stromal cells (BMSCs); experiment: viability of MM patient-derived bone marrow stromal cells (BMSCs); assay type: cell-based
# Source text: as §2
# [3] = system: NF-κB DNA binding activity; experiment: NF-κB DNA binding activity, EMSA, RPMI 8226; assay type: cell-based; conditions: LPS
# [4] = system: Bcl-2-overexpressing MM.1S cells; experiment: viability of Bcl-2-overexpressing MM.1S cells; assay type: cell-based; conditions: 48 hours; 0, 12, 25 and 50 uM
# Experimental: as §1
# PC3 (Prostate) = experiment: 48 hr cytotoxicity, PC-3; assay type: cell-based, human
# Experimental: B16-F10 (ATCC; CRL-6475), DU 145 (ATCC; HTB-81), HEK293 (ATCC; CRL-1573), HT-29 (ATCC; HTB-38), LoVo (ATCC; CCL-229), MDA-MB-231 (ATCC; HTB-26), MIA PaCa-2 (ATCC; CRL-1420), NCI-H292 (ATCC; CRL-1848), OVCAR-3 (ATCC, HTB-161), PANC-1 (ATCC; CRL-1469), PC-3 (ATCC; CRL-1435), RPMI 8226 (ATCC; CCL-155) and U266 (ATCC; TIB-196) are maintained in appropriate culture media. The cells are cultured in an incubator at 37° C. in 5% CO2 and 95% humidified air.
# For cell growth inhibition assays, B16-F10, DU 145, HEK293, HT-29, LoVo, MDA-MB-231, MIA PaCa-2, NCI-H292, OVCAR-3, PANC-1, PC-3, RPMI 8226 and U266 cells are seeded at 1.25×10^3, 5×10^3, 1.5×10^4, 5×10^3, 5×10^3, 1×10^4, 2×10^3, 4×10^3, 1×10^4, 7.5×10^3, 5×10^3, 2×10^4, 2.5×10^4 cells/well respectively in 90 μl complete media into Corning 3904 black-walled, clear-bottom tissue culture plates. 20 mM stock solutions of compounds of Formula II, IIA, and IIB are prepared in 100% DMSO, aliquoted and stored at −80° C. Compounds of Formula II, IIA, and IIB are serially diluted and added in triplicate to the test wells resulting in final concentrations ranging from of 20 μM to 0.2 pM. […]
# Following 48 hours of drug exposure, 10 μl of 0.2 mg/ml resazurin (obtained from Sigma-Aldrich Chemical Co.) in Mg^2+, Ca^2+ free phosphate buffered saline is added to each well and the plates are returned to the incubator for 3-6 hours. Since living cells metabolize Resazurin, the fluorescence of the reduction product of Resazurin is measured using a Fusion microplate fluorometer (Packard Bioscience) with λex=535 nm and λem=590 nm filters. […]
# The cytotoxicity assays were performed by seeding individual cell lines at appropriate density in the 96 well flat-bottomed plates and allowed to attach for 24 hours at 37° C., 5% CO2 and 95% humidified air (RPMI 8226 and U266 cells were plated in 96 well plates on the day of compound addition). […] Cell viability was assessed 48 hours later by measuring the fluorescence of the reduction product of Resazurin by a Fusion microplate fluorometer (PerkinElmer) with λex=535 nm and λem=590 nm filters. […]
smiles,measurement,setting,value
"C=CC(=O)C1(C)CCCC2(C)C3=CCC(C)(C=C)C[C@@H]3CC[C@H]12 (stereo in doubt) [NPI-1387, 1-[(1S,4aS,7R)-1,4a,7-Trimethyl-7-vinyl-1,2,3,4,4a,6,7,8,8a,9,10,10a-dodecahydro-1-phenanthrenyl]-2-propen-1-one]",percentage of viable cells,[1],marked decrease in the percentage of viable cells
same,"Apoptic signaling in MM cells, intrinsic and extrinsic pathways",MM cells,triggered by NPI-1387
same,caspase activation,MM cells; 25 μM,"induces activation of caspase-8, caspase-9, followed by caspase-3 cleavage"
same,"apoptosis (nuclear condensation, PARP cleavage)",MM cells; respective IC50 for 48 h,significant apoptosis
same,viability of bone marrow stromal (stem) cells,[2],does not affect the viability of bone marrow stem cells
same,viability of bone marrow stromal (stem) cells,[2]; listed as NF-KB inhibitor,does not affect the viability
same,NF-κB DNA binding activity,[3],inhibits the DNA binding activity of NF-κB in a dose-dependent manner
same,percentage of viable cells,[4],marked decrease in the percentage of viable cells
same,IC50,PC3 (Prostate),10 ± 2 µM
same,IC50,"PC3 (Prostate); Homo sapiens, 48 h",11 ± 2 µM

# Source: patent publication US7893299B2, “Interleukin-1 and tumor necrosis factor-αmodulators; syntheses of such modulators and methods of using such modulators” (Nereus Pharmaceuticals, Inc., priority 2005, dated 2011)
